Source: patent US20040253597A1, “Novel protein and dna thereof” (priority 2001, published 2004)

Target: T1, human TCH169 (Homo sapiens, UniProt Q86YT5)
T1 construct: expressed in transfected cells
Assay: [1,5-^14C] citric acid uptake in the human TCH169 gene expression cell line
Type: cell-based
Conditions: human TCH169 expressing CHO cells clone No. 2-11; NaCl buffer (140 mM NaCl) vs NMDG buffer and Mock cells; 37° C., 15 minutes, 30 minutes and an hour
Protocol: Using human TCH169 gene expression cell line clone No. 2-11 acquired in EXAMPLE 7, the uptake of [1,5-^14C] citric acid was assayed. Human TCH169 gene expression cell line clone No. 2-11 was seeded on a 96 well plate in 4×10^4 cells per well, followed by incubation at 37° C. for 24 hours. After the medium was removed, the cells were washed 3 times with 150 μL NMDG buffer (140 mM N-methyl-D(−)-glucamine, 25 mM Hepes/Tris, 5.4 mM KCl, 1.8 mM CaCl2, 0.8 mM MgSO4, 5 mM glucose, pH 7.4-7.6), and 150 μL NMDG buffer was supplemented thereto followed by incubation at 37° C. for an hour. After the buffer was replaced with 90 μL NaCl buffer (140 mM NaCl, 25 mM Hepes/Tris, 5.4 mM KCl, 1.8 mM CaCl2, 0.8 mM MgSO4, 5 mM glucose, pH 7.4-7.6) or 90 μL NMDG buffer, 10 μL of 223 μM [1,5-^14C] citric acid (manufactured by Amersham-Pharmacia-Biotech) was added and incubation was performed at 37° C. for 15 minutes, 30 minutes and an hour followed by washing 3 times with 200 μL PBS (manufactured by Takara Shuzo Co., Ltd.). After 100 μL of Opitiphase ‘SuperMix’ (manufactured by Perkin-Elmer-Life Science) was added to the system and the mixture was stirred, the amount of [1,5-^14C] citric acid taken up into the cells was measured in terms of the radioactivity. […] CHO dhfr^− cells transfected with vector pcDNA3.1(+) (Mock) was also treated in a similar manner to measure the radioactivity as well.

T1 sequence (Q86YT5 whole entry): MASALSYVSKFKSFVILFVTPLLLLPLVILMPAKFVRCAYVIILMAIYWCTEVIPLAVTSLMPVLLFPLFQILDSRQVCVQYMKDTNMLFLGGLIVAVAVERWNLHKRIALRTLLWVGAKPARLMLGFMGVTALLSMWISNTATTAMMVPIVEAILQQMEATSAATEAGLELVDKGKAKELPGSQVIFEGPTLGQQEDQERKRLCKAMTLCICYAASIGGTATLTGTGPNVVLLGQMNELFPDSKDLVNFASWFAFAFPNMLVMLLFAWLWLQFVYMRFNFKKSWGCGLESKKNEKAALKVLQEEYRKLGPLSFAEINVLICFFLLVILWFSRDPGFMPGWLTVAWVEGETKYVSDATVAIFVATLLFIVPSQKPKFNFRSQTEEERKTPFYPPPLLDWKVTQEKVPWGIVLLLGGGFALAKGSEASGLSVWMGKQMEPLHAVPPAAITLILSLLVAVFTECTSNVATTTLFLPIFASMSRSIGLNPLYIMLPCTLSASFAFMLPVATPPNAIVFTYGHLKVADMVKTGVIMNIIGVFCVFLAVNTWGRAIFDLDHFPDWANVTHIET

## O=C(O)C(O)(C[14C](=O)O)C[14C](=O)O [[1,5-^14C] citric acid]
  uptake of [1,5-^14C] citric acid into the cells (radioactivity): taken up into the human TCH169 expression CHO cells
